In ChEMBL document CHEMBL1201862, “PubChem BioAssay data set” (2004):
Where “and” joins values, the source holds several entries; their conditions need not be identical. Equal values may be shown once.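 Results reflect a 48-hour exposure of cells in 96-well plates to compound at five concentrations. GI50 is the concentration that inhibits growth by half.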 Calls of active or inactive are those of the source. Cut-off read from the data, not from the text of the source: active = GI50 up to about 1.1 µM and inactive = higher.

Legend:
Assay in all cases: DTP human tumour cell line panel, 48 h
CAKI-1 = tested on: CAKI-1
Malme-3M = tested on: Malme-3M
MCF7 = tested on: MCF7
HCT-116 = tested on: HCT-116
SF-295 = tested on: SF-295
SK-MEL-28 = tested on: SK-MEL-28
NCI-H460 = tested on: NCI-H460
MDA-N = tested on: MDA-N
ACHN = tested on: ACHN
IGROV-1 = tested on: IGROV-1
SW-620 = tested on: SW-620
DU-145 = tested on: DU-145
TK-10 = tested on: TK-10
HCC 2998 = tested on: HCC 2998
SF-268 = tested on: SF-268
U-251 = tested on: U-251
SNB-19 = tested on: SNB-19
UO-31 = tested on: UO-31
SNB-75 = tested on: SNB-75
OVCAR-4 = tested on: OVCAR-4

Compound	GI50 (CAKI-1)	GI50 (Malme-3M)	GI50 (MCF7)	GI50 (HCT-116)	GI50 (SF-295)	GI50 (SK-MEL-28)	GI50 (NCI-H460)	GI50 (MDA-N)	GI50 (ACHN)	GI50 (IGROV-1)	GI50 (SW-620)	GI50 (DU-145)	GI50 (TK-10)	GI50 (HCC 2998)	GI50 (SF-268)	GI50 (U-251)	GI50 (SNB-19)	GI50 (UO-31)	GI50 (SNB-75)	GI50 (OVCAR-4)
COc1ccc2c(c1)/C(=C\c1c(-c3ccccc3)nc3n1CCS3)C(=O)N2	4.99 µM (inactive)	12.2 µM (inactive)	4.62 µM (inactive)	5.01 µM (inactive)	3.79 µM (inactive)	11.1 µM (inactive)	3.52 µM (inactive)	1.87 µM (inactive)	11.5 µM (inactive)	4.92 µM (inactive)	2.99 µM (inactive)	16.3 µM (inactive)	10.7 µM (inactive)	10.6 µM (inactive)	9.2 µM (inactive)	7.28 µM (inactive)	49.7 µM (inactive)	9.82 µM (inactive)	12.8 µM (inactive)	–
CC(C)OP(=O)(OC(C)C)C(C(F)(F)F)C(F)(F)F	> 100 µM (inactive)	> 100 µM (inactive)	> 100 µM (inactive)	> 100 µM (inactive)	> 100 µM (inactive)	> 100 µM (inactive)	–	> 100 µM (inactive)	> 100 µM (inactive)	> 100 µM (inactive)	> 100 µM (inactive)	> 100 µM (inactive)	> 100 µM (inactive)	> 100 µM (inactive)	> 100 µM (inactive)	> 100 µM (inactive)	> 100 µM (inactive)	> 100 µM (inactive)	> 100 µM (inactive)	> 100 µM (inactive)
Cc1cc(C)nc(NS(=O)(=O)c2ccc(NC(=O)c3cccc4c(NNc5ccc(S(=O)(=O)N=C(N)N)cc5)c5ccccc5nc34)cc2)n1	> 50 µM (inactive)	> 50 µM (inactive)	> 50 µM (inactive)	> 50 µM (inactive)	> 50 µM (inactive)	–	> 50 µM (inactive)	> 50 µM (inactive)	> 50 µM (inactive)	> 50 µM (inactive)	> 50 µM (inactive)	> 50 µM (inactive)	> 50 µM (inactive)	> 50 µM (inactive)	> 50 µM (inactive)	> 50 µM (inactive)	> 50 µM (inactive)	48.1 µM (inactive)	41.9 µM (inactive)	> 50 µM (inactive)
COc1cc2c(cc1OC)C13CCN4CC5CCOC6CC(=O)N2C1C6C5CC43 (stereo not drawn)	> 100 µM (inactive)	> 100 µM (inactive)	> 100 µM (inactive)	> 100 µM (inactive)	> 100 µM (inactive)	> 100 µM (inactive)	> 100 µM (inactive)	> 100 µM (inactive)	> 100 µM (inactive)	> 100 µM (inactive)	> 100 µM (inactive)	> 100 µM (inactive)	> 100 µM (inactive)	> 100 µM (inactive)	> 100 µM (inactive)	> 100 µM (inactive)	> 100 µM (inactive)	> 100 µM (inactive)	–	> 100 µM (inactive)
N/C(=N/c1ccc(O)cc1)S(=O)O	> 100 µM (inactive)	> 100 µM (inactive)	> 100 µM (inactive)	> 100 µM (inactive)	> 100 µM (inactive)	> 100 µM (inactive)	–	> 100 µM (inactive)	> 100 µM (inactive)	> 100 µM (inactive)	> 100 µM (inactive)	> 100 µM (inactive)	> 100 µM (inactive)	> 100 µM (inactive)	> 100 µM (inactive)	> 100 µM (inactive)	> 100 µM (inactive)	> 100 µM (inactive)	> 100 µM (inactive)	> 100 µM (inactive)
Nc1nc(Cl)cc(NCC2CC(O)(CO)C2)n1 (stereo not drawn)	> 100 µM (inactive)	> 100 µM (inactive)	> 100 µM (inactive)	> 100 µM (inactive)	> 100 µM (inactive)	> 100 µM (inactive)	> 100 µM (inactive)	> 100 µM (inactive)	> 100 µM (inactive)	> 100 µM (inactive)	> 100 µM (inactive)	> 100 µM (inactive)	> 100 µM (inactive)	> 100 µM (inactive)	> 100 µM (inactive)	> 100 µM (inactive)	–	> 100 µM (inactive)	> 100 µM (inactive)	> 100 µM (inactive)
O=c1[nH]ncc2[nH]c3c(c12)CCCc1ccccc1-3	35.2 µM (inactive)	96.2 µM (inactive)	29.4 µM (inactive)	27.4 µM (inactive)	32.5 µM (inactive)	–	29.7 µM (inactive)	29.6 µM (inactive)	32.8 µM (inactive)	55.2 µM (inactive)	43.2 µM (inactive)	54.5 µM (inactive)	50.1 µM (inactive)	27.9 µM (inactive)	23.6 µM (inactive)	38.6 µM (inactive)	71.6 µM (inactive)	43.4 µM (inactive)	–	44.5 µM (inactive)
CC(=O)N(CCc1ccccc1)C(C#N)c1ccccc1 (stereo not drawn)	> 100 µM (inactive)	> 100 µM (inactive)	> 100 µM (inactive)	> 100 µM (inactive)	> 100 µM (inactive)	–	–	> 100 µM (inactive)	> 100 µM (inactive)	> 100 µM (inactive)	> 100 µM (inactive)	> 100 µM (inactive)	> 100 µM (inactive)	> 100 µM (inactive)	> 100 µM (inactive)	> 100 µM (inactive)	> 100 µM (inactive)	> 100 µM (inactive)	10.5 µM (inactive)	> 100 µM (inactive)
C[n+]1c(/C=C/c2ccc(/C=N/NC(=O)c3ccc(C(=O)N/N=C/c4ccc(/C=C/c5cn6ccccc6[n+]5C)cc4)cc3)cc2)cn2ccccc21	> 100 µM (inactive)	> 100 µM (inactive)	> 100 µM (inactive)	> 100 µM (inactive)	> 100 µM (inactive)	> 100 µM (inactive)	> 100 µM (inactive)	> 100 µM (inactive)	> 100 µM (inactive)	> 100 µM (inactive)	> 100 µM (inactive)	> 100 µM (inactive)	> 100 µM (inactive)	> 100 µM (inactive)	> 100 µM (inactive)	> 100 µM (inactive)	> 100 µM (inactive)	> 100 µM (inactive)	> 100 µM (inactive)	–
CNC(=O)CCCNC(=O)CCCC(=O)OC	> 100 µM (inactive)	> 100 µM (inactive)	> 100 µM (inactive)	> 100 µM (inactive)	> 100 µM (inactive)	> 100 µM (inactive)	> 100 µM (inactive)	> 100 µM (inactive)	> 100 µM (inactive)	> 100 µM (inactive)	> 100 µM (inactive)	> 100 µM (inactive)	> 100 µM (inactive)	> 100 µM (inactive)	> 100 µM (inactive)	> 100 µM (inactive)	> 100 µM (inactive)	> 100 µM (inactive)	> 100 µM (inactive)	–
CC(=O)OC1OC(C2c3cccc(O)c3C(=O)c3c(O)cc(CO)cc32)C(O)C(O)C1O (stereo not drawn)	2.78 µM (inactive) and 2.23 µM (inactive)	4.39 µM (inactive) and 3.45 µM (inactive)	5.04 µM (inactive) and 4.75 µM (inactive)	3.01 µM (inactive) and 2.92 µM (inactive)	2.72 µM (inactive) and 3.62 µM (inactive)	2.92 µM (inactive)	3.43 µM (inactive) and 3.48 µM (inactive)	3.74 µM (inactive) and 3.13 µM (inactive)	–	4.14 µM (inactive) and 3.87 µM (inactive)	3.66 µM (inactive) and 3.03 µM (inactive)	4.55 µM (inactive) and 4.88 µM (inactive)	5.69 µM (inactive) and 5.81 µM (inactive)	1.85 µM (inactive) and 3.03 µM (inactive)	4.97 µM (inactive) and 5.77 µM (inactive)	3.66 µM (inactive)	2.88 µM (inactive) and 3.33 µM (inactive)	6.46 µM (inactive) and 7.96 µM (inactive)	3.27 µM (inactive) and 5.27 µM (inactive)	5.38 µM (inactive) and 6.61 µM (inactive)
Cc1cn2c(/C=C3/C(=O)Nc4ccccc43)c(C)nc2s1	3.07 µM (inactive)	2.61 µM (inactive)	0.547 µM (active)	0.867 µM (active)	0.652 µM (active)	5.96 µM (inactive)	0.653 µM (active)	0.165 µM (active)	6.07 µM (inactive)	0.634 µM (active)	0.504 µM (active)	3.89 µM (inactive)	3.78 µM (inactive)	1.84 µM (inactive)	3.98 µM (inactive)	2.24 µM (inactive)	3.32 µM (inactive)	5.6 µM (inactive)	3.79 µM (inactive)	–
Cc1nc(C)c(N2CCN(S(=O)(=O)N(Cc3ccccc3)Cc3ccccc3)CC2)c(O)n1	–	> 100 µM (inactive)	> 43.6 µM (inactive)	53 µM (inactive)	18.7 µM (inactive)	> 100 µM (inactive)	> 46.9 µM (inactive)	> 100 µM (inactive)	28.6 µM (inactive)	16.8 µM (inactive)	> 100 µM (inactive)	> 59.4 µM (inactive)	33.6 µM (inactive)	> 100 µM (inactive)	6.85 µM (inactive)	5.21 µM (inactive)	8.91 µM (inactive)	> 100 µM (inactive)	5.31 µM (inactive)	0.836 µM (active)
Cc1cc(N(CCC#N)CCC#N)ccc1C(/N=N/c1ccc([N+](=O)[O-])cc1)=N\NC(=O)c1ccccc1	72.1 µM (inactive)	56.9 µM (inactive)	25.8 µM (inactive)	31.8 µM (inactive)	19.5 µM (inactive)	–	37.2 µM (inactive)	6.25 µM (inactive)	62.8 µM (inactive)	47 µM (inactive)	–	48 µM (inactive)	61.9 µM (inactive)	40.5 µM (inactive)	32.3 µM (inactive)	42.3 µM (inactive)	40.6 µM (inactive)	34.4 µM (inactive)	48.4 µM (inactive)	61 µM (inactive)
